From ChEMBL document CHEMBL3525949, “Role of organic anion-transporting polypeptides for cellular mesalazine (5-aminosalicylic acid) uptake” (Drug Metab Dispos, 2011) come the findings set out here.

What all share (format): ADME, cell-based
Series [1] can be described thus: Drug uptake in human SCLO1B1*5 mutant expressed HEK293 cells assessed as net uptake measured per mg of protein.
Another series has as its target T1, OATP1B1 (Homo sapiens, UniProt Q9Y6L6).
T1 sequence (Q9Y6L6 whole entry): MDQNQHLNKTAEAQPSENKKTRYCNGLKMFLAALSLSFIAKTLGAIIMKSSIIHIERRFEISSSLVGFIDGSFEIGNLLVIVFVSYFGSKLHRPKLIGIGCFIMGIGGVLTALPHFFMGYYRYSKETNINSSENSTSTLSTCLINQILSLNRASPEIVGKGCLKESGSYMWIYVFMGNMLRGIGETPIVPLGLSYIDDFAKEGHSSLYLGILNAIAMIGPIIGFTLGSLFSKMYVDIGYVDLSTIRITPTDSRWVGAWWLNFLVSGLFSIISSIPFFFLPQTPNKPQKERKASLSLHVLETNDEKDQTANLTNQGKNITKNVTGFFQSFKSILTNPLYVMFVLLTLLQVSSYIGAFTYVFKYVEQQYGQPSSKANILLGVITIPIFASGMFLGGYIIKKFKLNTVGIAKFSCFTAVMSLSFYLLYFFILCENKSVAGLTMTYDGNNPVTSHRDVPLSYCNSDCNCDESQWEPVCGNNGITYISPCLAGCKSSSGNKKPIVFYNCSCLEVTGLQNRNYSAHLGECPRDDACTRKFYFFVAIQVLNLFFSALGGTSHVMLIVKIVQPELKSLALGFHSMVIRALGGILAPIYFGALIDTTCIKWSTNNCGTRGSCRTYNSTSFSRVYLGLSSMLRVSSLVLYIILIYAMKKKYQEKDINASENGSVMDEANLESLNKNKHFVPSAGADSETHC
Put plainly: Drug uptake in human OATP1B1 expressed HEK293 cells at 20 uM relative to control cells. Conditions: HEK293 cells expressing human OATP1B1, read-out: FC.

The next series relates to SCLO1B1*1b mutant. Put plainly: Drug uptake in human SCLO1B1*1b mutant expressed HEK293 cells assessed as net uptake. Conditions: HEK293 cells expressing human SCLO1B1*1b mutant.
Series [2] deals with T2, OATP1B3 (Homo sapiens, UniProt Q9NPD5).
T2 sequence (Q9NPD5 whole entry): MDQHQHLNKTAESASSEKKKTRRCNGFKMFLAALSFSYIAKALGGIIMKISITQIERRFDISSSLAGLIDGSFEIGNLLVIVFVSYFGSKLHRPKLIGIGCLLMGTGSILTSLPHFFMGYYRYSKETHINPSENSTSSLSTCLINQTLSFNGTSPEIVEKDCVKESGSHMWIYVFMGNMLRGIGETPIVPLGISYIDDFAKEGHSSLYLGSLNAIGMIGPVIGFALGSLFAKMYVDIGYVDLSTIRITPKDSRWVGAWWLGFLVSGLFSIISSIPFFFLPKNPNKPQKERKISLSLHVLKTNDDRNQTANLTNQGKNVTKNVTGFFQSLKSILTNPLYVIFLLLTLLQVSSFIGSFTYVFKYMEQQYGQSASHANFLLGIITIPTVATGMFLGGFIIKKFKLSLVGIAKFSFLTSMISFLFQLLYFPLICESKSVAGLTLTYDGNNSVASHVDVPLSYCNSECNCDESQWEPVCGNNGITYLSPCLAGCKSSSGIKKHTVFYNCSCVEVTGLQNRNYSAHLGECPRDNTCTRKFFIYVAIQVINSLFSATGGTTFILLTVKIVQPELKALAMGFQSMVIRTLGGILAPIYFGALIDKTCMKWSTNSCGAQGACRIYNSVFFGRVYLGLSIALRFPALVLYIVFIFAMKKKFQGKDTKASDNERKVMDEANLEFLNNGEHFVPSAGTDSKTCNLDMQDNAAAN
The series can be described thus: Drug uptake in human OATP1B3 expressed HEK293 cells at 20 uM relative to control cells. Conditions: HEK293 cells expressing human OATP1B3, read-out: FC.

The target of series [3] is T3, Solute carrier organic anion transporter family member 1A2 (Homo sapiens, UniProt P46721).
T3 sequence (P46721 whole entry): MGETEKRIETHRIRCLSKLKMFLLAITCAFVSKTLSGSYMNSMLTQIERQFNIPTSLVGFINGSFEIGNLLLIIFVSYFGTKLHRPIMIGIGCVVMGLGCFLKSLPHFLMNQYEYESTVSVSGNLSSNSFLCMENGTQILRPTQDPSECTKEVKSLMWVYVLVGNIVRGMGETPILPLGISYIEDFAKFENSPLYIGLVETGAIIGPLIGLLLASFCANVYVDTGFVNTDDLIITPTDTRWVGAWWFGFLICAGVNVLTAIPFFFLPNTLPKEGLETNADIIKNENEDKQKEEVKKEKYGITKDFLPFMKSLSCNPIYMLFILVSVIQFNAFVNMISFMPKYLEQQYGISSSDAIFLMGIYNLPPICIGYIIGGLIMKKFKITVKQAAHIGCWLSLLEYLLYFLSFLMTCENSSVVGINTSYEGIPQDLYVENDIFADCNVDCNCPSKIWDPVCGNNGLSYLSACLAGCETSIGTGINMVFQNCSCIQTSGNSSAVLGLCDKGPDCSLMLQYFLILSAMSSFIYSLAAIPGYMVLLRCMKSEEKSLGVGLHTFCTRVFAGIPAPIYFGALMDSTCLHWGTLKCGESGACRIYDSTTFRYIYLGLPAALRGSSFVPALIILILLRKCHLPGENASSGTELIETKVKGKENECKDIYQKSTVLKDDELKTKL
The series can be described thus: Inhibition of human OATP1A2 expressed HEK293 cells assessed as inhibition of [3H]sulfobromophthalein uptake by liquid scintillation counting.

The test system of the next series is SCLO1B1*5 mutant. The series can be described thus: Drug uptake in human SCLO1B1*5 mutant expressed HEK293 cells assessed as net uptake. As to conditions: HEK293 cells expressing human SCLO1B1*5 mutant.
Series [4] deals with T4, Solute carrier organic anion transporter family member 1B3 (Homo sapiens, UniProt Q9NPD5).
T4 sequence (Q9NPD5 whole entry): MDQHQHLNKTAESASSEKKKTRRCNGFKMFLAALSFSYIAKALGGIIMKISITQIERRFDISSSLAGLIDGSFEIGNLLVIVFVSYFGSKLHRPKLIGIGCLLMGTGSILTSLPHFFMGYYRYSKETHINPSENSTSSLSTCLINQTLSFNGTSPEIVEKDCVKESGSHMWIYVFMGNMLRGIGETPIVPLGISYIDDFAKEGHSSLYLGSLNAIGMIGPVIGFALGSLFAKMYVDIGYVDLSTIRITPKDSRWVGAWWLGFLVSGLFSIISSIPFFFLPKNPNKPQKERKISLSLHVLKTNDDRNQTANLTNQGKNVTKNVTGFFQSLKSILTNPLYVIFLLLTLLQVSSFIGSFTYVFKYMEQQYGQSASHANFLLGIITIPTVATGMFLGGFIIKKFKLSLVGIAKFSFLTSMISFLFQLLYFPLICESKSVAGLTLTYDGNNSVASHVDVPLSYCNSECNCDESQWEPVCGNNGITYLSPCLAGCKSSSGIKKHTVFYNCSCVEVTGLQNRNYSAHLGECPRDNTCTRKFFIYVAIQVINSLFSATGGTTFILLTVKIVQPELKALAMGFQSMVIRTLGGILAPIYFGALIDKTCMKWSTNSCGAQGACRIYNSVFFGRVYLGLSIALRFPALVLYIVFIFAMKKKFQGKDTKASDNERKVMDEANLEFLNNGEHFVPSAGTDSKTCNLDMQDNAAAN
Put plainly: Drug uptake in human OATP1B3 expressed HEK293 cells assessed as net uptake measured per mg of protein.

For the next series, the system named is SCLO1B1*15 mutant. Put plainly: Drug uptake in human SCLO1B1*15 mutant expressed HEK293 cells assessed as net uptake. As to conditions: HEK293 cells expressing human SCLO1B1*15 mutant.
In the next series the test system is SCLO1B1*1a mutant. The series can be described thus: Drug uptake in human SCLO1B1*1a mutant expressed HEK293 cells assessed as net uptake. As to conditions: HEK293 cells expressing human SCLO1B1*1a mutant.
The target in series [5] is T2, OATP1B3. Put plainly: Drug uptake in human OATP1B3 expressed HEK293 cells assessed as net uptake. Conditions: HEK293 cells expressing human OATP1B3.
A short description of series [6]: Drug uptake in human SCLO1B1*1b mutant expressed HEK293 cells assessed as net uptake measured per mg of protein.
Series [7] addresses T5, Solute carrier organic anion transporter family member 1B1 (Homo sapiens, UniProt Q9Y6L6).
T5 sequence (Q9Y6L6 whole entry): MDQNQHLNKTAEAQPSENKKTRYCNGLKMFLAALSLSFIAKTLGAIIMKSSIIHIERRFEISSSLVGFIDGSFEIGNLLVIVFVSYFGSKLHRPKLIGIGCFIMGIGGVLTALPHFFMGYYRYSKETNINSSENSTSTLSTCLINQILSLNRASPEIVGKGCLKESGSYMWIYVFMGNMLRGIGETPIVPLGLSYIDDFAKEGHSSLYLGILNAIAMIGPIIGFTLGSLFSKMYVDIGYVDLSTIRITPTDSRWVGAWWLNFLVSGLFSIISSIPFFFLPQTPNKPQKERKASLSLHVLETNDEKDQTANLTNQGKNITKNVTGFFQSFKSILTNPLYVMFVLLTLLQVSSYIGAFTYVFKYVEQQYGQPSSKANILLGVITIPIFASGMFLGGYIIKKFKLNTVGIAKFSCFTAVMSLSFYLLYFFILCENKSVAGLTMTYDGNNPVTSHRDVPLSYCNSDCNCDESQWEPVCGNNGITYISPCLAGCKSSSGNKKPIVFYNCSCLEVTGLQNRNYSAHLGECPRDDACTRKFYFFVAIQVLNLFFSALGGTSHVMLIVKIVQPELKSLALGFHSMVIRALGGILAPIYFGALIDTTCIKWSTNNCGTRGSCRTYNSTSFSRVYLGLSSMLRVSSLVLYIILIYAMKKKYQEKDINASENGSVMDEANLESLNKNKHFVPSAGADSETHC
Put plainly: Inhibition of human OATP1B1 expressed HEK293 cells assessed as inhibition of [3H]sulfobromophthalein uptake by liquid scintillation counting.

The target in series [8] is T4, Solute carrier organic anion transporter family member 1B3. The series can be described thus: Inhibition of human OATP1B3 expressed HEK293 cells assessed as inhibition of [3H]sulfobromophthalein uptake by liquid scintillation counting.
The nature of series [9]: Drug uptake in human SCLO1B1*15 mutant expressed HEK293 cells assessed as net uptake measured per mg of protein.
Series [10] in a line: Drug uptake in human SCLO1B1*1a mutant expressed HEK293 cells assessed as net uptake measured per mg of protein.
The next series has as its target T6, OATP2B1 (Homo sapiens, UniProt O94956).
T6 sequence (O94956 whole entry): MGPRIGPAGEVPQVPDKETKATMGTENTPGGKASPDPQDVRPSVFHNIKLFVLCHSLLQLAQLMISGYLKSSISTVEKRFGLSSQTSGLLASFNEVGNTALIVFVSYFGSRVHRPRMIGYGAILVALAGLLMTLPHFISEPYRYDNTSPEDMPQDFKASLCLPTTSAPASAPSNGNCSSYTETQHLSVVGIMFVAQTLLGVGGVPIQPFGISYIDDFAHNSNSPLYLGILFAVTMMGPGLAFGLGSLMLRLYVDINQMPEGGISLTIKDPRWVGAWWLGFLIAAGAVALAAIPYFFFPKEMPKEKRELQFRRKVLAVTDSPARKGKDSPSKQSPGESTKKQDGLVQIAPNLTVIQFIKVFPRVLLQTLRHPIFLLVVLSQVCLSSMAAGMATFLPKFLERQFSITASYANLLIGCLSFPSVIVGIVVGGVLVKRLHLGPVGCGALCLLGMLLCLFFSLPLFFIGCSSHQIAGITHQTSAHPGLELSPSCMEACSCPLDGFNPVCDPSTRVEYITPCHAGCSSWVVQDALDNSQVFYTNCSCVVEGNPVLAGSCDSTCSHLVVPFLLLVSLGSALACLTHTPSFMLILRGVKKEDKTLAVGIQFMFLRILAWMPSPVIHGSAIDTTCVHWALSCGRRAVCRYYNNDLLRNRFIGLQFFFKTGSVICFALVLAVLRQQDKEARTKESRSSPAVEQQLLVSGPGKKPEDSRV
The series can be described thus: Drug uptake in human OATP2B1 expressed HEK293 cells at 20 uM relative to control cells. Conditions: HEK293 cells expressing human OATP2B1, read-out: FC.

The target in series [11] is T7, Solute carrier organic anion transporter family member 2B1 (Homo sapiens, UniProt O94956).
T7 sequence (O94956 whole entry): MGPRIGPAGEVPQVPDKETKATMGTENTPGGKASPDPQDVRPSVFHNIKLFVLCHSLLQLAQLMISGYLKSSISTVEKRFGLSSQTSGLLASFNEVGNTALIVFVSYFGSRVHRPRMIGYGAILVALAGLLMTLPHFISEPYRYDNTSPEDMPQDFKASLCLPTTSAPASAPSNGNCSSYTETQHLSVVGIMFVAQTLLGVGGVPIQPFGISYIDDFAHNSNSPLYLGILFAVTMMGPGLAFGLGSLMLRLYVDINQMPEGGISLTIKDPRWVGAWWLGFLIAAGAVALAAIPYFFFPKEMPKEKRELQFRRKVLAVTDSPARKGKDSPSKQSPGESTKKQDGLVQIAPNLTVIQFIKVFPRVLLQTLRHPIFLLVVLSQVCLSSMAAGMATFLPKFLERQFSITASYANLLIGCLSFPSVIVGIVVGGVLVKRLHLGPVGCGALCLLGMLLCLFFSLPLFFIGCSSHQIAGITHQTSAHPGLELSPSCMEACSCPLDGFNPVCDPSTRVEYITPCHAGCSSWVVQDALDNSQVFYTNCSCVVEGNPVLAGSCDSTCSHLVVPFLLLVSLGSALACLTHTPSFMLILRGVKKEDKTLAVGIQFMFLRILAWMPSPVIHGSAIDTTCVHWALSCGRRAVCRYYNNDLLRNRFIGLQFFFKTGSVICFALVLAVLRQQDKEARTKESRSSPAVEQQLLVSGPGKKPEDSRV
Put plainly: Inhibition of human OATP2B1 expressed HEK293 cells assessed as inhibition of [3H]sulfobromophthalein uptake by liquid scintillation counting.

The term Vmax denotes the rate approached at saturating substrate. In general, Km refers to the concentration of substrate that gives half-maximal velocity. `Nc1ccc(O)c(C(=O)O)c1` [MESALAMINE]: the maximal velocity (Vmax) was found to be 6.1 pmol/min in [1]; 85.1 pmol/min in series [4]; 3.8 pmol/min in series [6]; 9.3 pmol/min in series [9]; 28.3 pmol/min in [10]. For the same compound, the uptake ratio at 20 µM at OATP1B1 worked out at 2.7; on OATP1B3 [2], 2.9; on OATP2B1 it was 2. In addition, the Michaelis-Menten constant (Km) worked out at 16.3 µM in the series with SCLO1B1*1b mutant; 24.3 µM in the series on SCLO1B1*5 mutant; 32.4 µM with SCLO1B1*15 mutant; 55.1 µM with SCLO1B1*1a mutant; 77.4 µM on OATP1B3 [5]. Moreover, the “inhibition (INH)” value in [3], in [7], in series [8] and in [11] was “Dose-dependent effect” throughout.
